Laboratory results taken from PubChem BioAssay (NCI).
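Interpolation was linear, between the two tested concentrations surrounding the appropriate level; five concentrations were tested over 48 hours in 96-well plates. GI50 is the concentration that inhibits growth by half. TGI: total growth inhibition.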

Assays:
Assay in all cases: NCI-60 cell line screen, 48 h
PC-3 prostate = test system: PC-3 prostate
HCC-2998 colon = test system: HCC-2998 colon
NCI/ADR-RES ovarian = test system: NCI/ADR-RES ovarian
MDA-MB-231 breast = test system: MDA-MB-231 breast
HL-60(TB) leukemia = test system: HL-60(TB) leukemia
T-47D breast = test system: T-47D breast
SW-620 colon = test system: SW-620 colon
IGROV1 ovarian = test system: IGROV1 ovarian
A549 NSCLC = test system: A549 NSCLC
KM12 colon = test system: KM12 colon

SMILES	GI50 (PC-3 prostate) [µM]	TGI (PC-3 prostate) [µM]	GI50 (HCC-2998 colon) [µM]	TGI (HCC-2998 colon) [µM]	GI50 (NCI/ADR-RES ovarian) [µM]	TGI (NCI/ADR-RES ovarian) [µM]	GI50 (MDA-MB-231 breast) [µM]	TGI (MDA-MB-231 breast) [µM]	GI50 (HL-60(TB) leukemia) [µM]	TGI (HL-60(TB) leukemia) [µM]	GI50 (T-47D breast) [µM]	TGI (T-47D breast) [µM]	GI50 (SW-620 colon) [µM]	TGI (SW-620 colon) [µM]	GI50 (IGROV1 ovarian) [µM]	TGI (IGROV1 ovarian) [µM]	GI50 (A549 NSCLC) [µM]	TGI (A549 NSCLC) [µM]	GI50 (KM12 colon) [µM]	TGI (KM12 colon) [µM]
CCCCCCCCCCCCCCCC1=NCC[N+]1(CCO)CCO	1.42	3.3	1.68	4.19	2.62	6.61	1.81	3.51	0.442	2.61	3.35	13.2	1.76	3.54	1.21	2.63	2.28	5.35	1.78	3.52
O=c1oc2ccc(I)cc2c(=O)n1-c1ccc(Br)cc1F	1.94	6.89	2.98	9.5	0.798	6.09	0.457	3.79	0.588	3.74	0.856	6.7	1.1	9.68	0.745	13.3	2.82	> 39.7	2.07	4.69
O=c1c2ccccc2sc2c(NCCCNCCO)nc3ccccc3c12	1.49	2.98	1.72	3.64	1.86	4.56	1.13	2.63	1.92	3.92	1.99	4.38	1.31	2.74	1.35	3.17	1.53	3.41	1.77	3.48
O=C1N[C@@H]2[C@@H](O)[C@@H](O)[C@H](O)C[C@H]2c2cc3c(c(O)c21)OCCO3	0.293	2.54	0.227	0.765	0.629	5.38	0.236	1.07	0.19	0.599	0.176	1.31	0.233	1.55	0.389	3.13	0.354	5.58	0.169	1.1
CCOC(=O)C1=CCCC[C@H]1S(=O)(=O)Nc1ccc(F)cc1Cl	34	> 100	31.2	> 100	33.9	> 100	28.4	98.6	15.7	47.9	16.6	> 100	30	> 100	31	> 100	35.4	> 100	27.1	> 100
COc1ccc2c(c1)C(=O)c1c-2n(CCCN(C)C)c(=O)c2ccccc12	0.436	8.07	0.187	0.955	0.349	9.66	1.86	12.9	0.321	2.64	0.309	3.56	0.16	3.93	0.344	12.3	0.119	0.559	0.412	5.25
CNC(=O)c1c(C)oc2cc(Oc3ncnc4cc(OC)c(OC)cc34)ccc12	> 100	> 100	> 100	> 100	> 100	> 100	> 100	> 100	> 100	> 100	> 100	> 100	> 100	> 100	> 100	> 100	> 100	> 100	> 100	> 100
Nc1nc(/C=C\c2ccc([N+](=O)[O-])s2)nc(N2CCN(c3ccccc3)CC2)n1	21.9	63.7	22.2	44.8	21.3	53	13	29.6	18.8	54.2	14.2	43.2	6.3	27.9	14.5	34.7	33.6	> 100	16.6	38.7
COc1ccc2ncn(-c3cc(O[C@H](C)c4ccccc4C(F)(F)F)c(C(N)=O)s3)c2c1	0.137	15.3	0.161	3.27	0.0586	0.185	0.167	5.19	0.0905	1.01	2.86	7.2	0.0749	6.01	0.312	10.5	0.119	4.22	0.0794	3.04
Cc1c(-c2cnccn2)ssc1=S		> 100		> 100		> 100		> 100		> 77.4		> 100		> 100		> 100		> 100		> 100
COc1ccc(Nc2nc3cc(N)cc(N)c3nc2-c2ccccc2)cc1	20.9	47.6	28.1	> 100	18.9	44.9	11.6	25.2	34.4	> 100	17.8	53.8	22.5	37	15.4	35.8	27.8	> 100	15.9	30.9
COc1ccc(C2(Cl)c3ccccc3N(c3ccccc3)c3ccccc32)cc1	0.238	4.11	0.357	1.53	2.05	10.5	0.759	2.54	0.542	4.25	0.288	5.38	0.37	1.69	0.77	10.3	0.407	2.9	1.18	5.54
COc1c/c(=C2\C=c3ccccc3=N2)[nH]/c1=C\c1[nH]c(C)cc1C	0.12	31.3	0.185	33.7	0.17	> 55.3	0.0117	3.87	< 0.0167	12.8	< 0.0211	6.05	< 0.01	51.4	0.102	17.7	0.139	19.2	0.0216	10.6
COc1cc2c(cc1OC(C)C)[C@H](c1ccc(Cl)cc1)N(c1ccc(N(C)CC3CCC(N4CCN(C)C(=O)C4)CC3)cc1)C(=O)C2 (stereo not given in full)	1.98	5.51	2.59	7.07	3.18	14.7	2.04	4.02	2.19	5.87	2.62	11.8	4.6	10	1.16	4.13	0.537	5.24	3.13	9.11
CNC(=O)c1ccc(N2C(=S)N(c3cnc(C#N)c(C(F)(F)F)c3)C(=O)C23CCC3)cc1F	> 100	> 100	> 100	> 100	> 100	> 100	> 100	> 100	63.9	> 100	80.6	> 100	> 100	> 100	> 100	> 100	> 100	> 100	> 100	> 100
CCc1nc(N)nc(N)c1-c1ccc(Cl)c([N+](=O)[O-])c1		> 100		> 100		> 100		> 100		> 51.5		> 100		> 100		> 100		> 100		> 100
Cc1cc2c(C(=O)NC[C@H](C)c3ccccc3)c(O)c(O)cc2c(O)c1-c1c(C)cc2c(C(=O)NC[C@H](C)c3ccccc3)c(O)c(O)cc2c1O	0.342	1.46	0.932	3.08	0.252	4.3	0.677	6.53	0.901	8.57	0.284	1.34	0.482	5.7	0.0909	11.3	0.0693	3.23	0.107	2.24
COc1ccc(C(=O)C(CN(C)C)CN(C)C)cc1	13.2	29.9	15.9	30	2.6	6.42	14.6	36.6	0.116	1.87	1.86	5.28	1.78	3.98	15.4	39.2	19.1	43.4	11.9	27.3
Cc1nn(CNc2ccccc2C(F)(F)F)c(=S)n1/N=C/c1cccc2cccnc12	79.1	> 100	> 100	> 100	35.3	> 100	23.4	91.7	40.6	> 100	> 100	> 100	65.8	> 100	52.3	> 100	> 100	> 100	43.7	> 100
CCc1ccc(Oc2c(-c3ccc(OCc4ccc(Cl)cc4)cc3O)n[nH]c2C(F)(F)F)cc1	1.88	3.86	1.93	4	2.11	4.85	1.91	3.96	2.41	4.86	1.71	4.25	2.05	4.45	2.33	6.87	2.02	4.22	1.77	3.35
CC(=O)O[C@@H]1C2CCC3C(CC[C@@]4(C)C3CC[C@@H]4C(C)N(C)C)[C@@]2(C)CC[C@@H]1NC(=O)C=C(C)C (stereo not given in full)	2.79	13.9	1.73	3.66	4.26	17.7	2.24	5.19	2.59	6.19	1.75	6.23	1.73	3.48	4.76	16	2.58	6.27	2.66	9.5
Cc1ccc(O)c(NC(=O)c2cccc(Nc3ccnc(C(F)(F)F)c3)c2)c1	11.4	38.5	10.5	23.2	3	32.4	11.6	44.8	0.592	11.1	2.29	24	14.6	38.5	12.6	28.1	5.09	28	11	24.8
Cc1onc(-c2ccccc2)c1C(=O)N/N=C/c1cc(Cl)cc(Cl)c1O	3.93	32.6	4.13	18.2	3.76	34.3	4.27	35.7	2.61	7.32	6.31	57.8	6.81	> 100	2.92	21.7	5.07	> 100	5.54	> 100
Oc1c(Cl)cc(Cl)c(Cl)c1CNCCNCc1c(O)c(Cl)cc(Cl)c1Cl	1.92	11.1	2.69	> 50	0.245	6.84	2.27	16.6	0.63	2.84	0.988	> 50	1.71	> 50	0.951	7.8	1.11	8.21	0.963	8
C[C@@H](Oc1cc(-n2cnc3ccc(OC4CCN(C)CC4)cc32)sc1C(N)=O)c1ccccc1Cl	0.0153	6.02	0.0234	2.98	0.0955	3.58	0.0225	0.53	0.00871	2.92	3.57	8.73	0.00875	3.48	0.0622	6.88	0.0183	3	0.00886	2.97
